Non-standard residues stand in square brackets, D forms with d. *: point of attachment. Palmitoyl = CCCCCCCCCCCCCCCC(=O)*; Orn = NCCC[C@H](N)C(=O)O; Dap = NC[C@H](N)C(=O)O; Dbu = Diaminobutyryl; NHHex = CCCCCCN*
Experiments:
[1] = system: human fibulin-5 gene promoter; test: Luminescence assay of human fibulin-5 gene promoter activation (Firefly luciferase); assay type: cell-based; conditions: 16-24 hours
Method: (§1) The effect of the compounds of the invention on the activity of the fibulin-5 and LOXL1 promoters was studied and compared to the levels of basal expression of the untreated cells (negative control) and with the effect of Interleukin-1β (IL-1β) in the same conditions.
(§2) Cells from an epithelial cell line doubly transfected with fibulin-5 and LOXL1 human promoters in which the luciferase gene is under the regulatory control of said promoters (4×10^4 cells/well) were seeded in a white plate and in a 96-well transparent plate, both treated with polylysine, and were incubated in Dulbecco's Modified Eagle Medium (DMEM-Glutamax™), with 10% of FBS, 1% Penicillin-Streptomycin (P/S), 1 mg/ml of Geneticin® (G418) and […] at 37° C. in at atmosphere with 5% CO2. After the incubation, the cells were incubated for 6 hours at 37° C. in at atmosphere with 5% CO2 with DMEM without serum. Then, this medium was removed and the cells were treated with different compounds at 0.1 mg/ml, 0.5 mg/ml, 1 mg/ml or 2 mg/mL in DMEM/1% FBS for 16-24 hours. As a positive control to activate the fibulin-5 and LOXL1 promoters 10 ng/ml of IL-1β were used and as a negative control untreated cells were used, just with DMEM/1% FBS. The incubations and treatments were carried out in parallel in the white plate and the transparent plate and in triplicate for each condition. After the treatment, the relative light units per second were determined (RLU/s) in the white plate by means of consecutive quantification of the activities of Firefly luciferase (fibulin-5 promoter) and Renilla luciferase (LOXL1 promoter), and the number of total cells/well in the transparent plate by means of staining with Crystal Violet (CV). To determine the Firefly and Renilla luciferase activities the Dual-Glo Luciferase Assay System kit by Promega was used. The cells were briefly lysed and the Firefly luciferase substrate was added. After incubating for 10 min at 25° C., the RLU/s were quantified by luminescence reader (Lumistar-BMG). Then the Firefly signal was extinguished and the Renilla luciferase substrate was added. After incubating for 5 min at 25° C., the RLU/s were quantified by the same luminescence reader. With regard to the determination of the total number of cells by Crystal Violet, the CV dyes the DNA of the cells and the quantity of dye taken by the cells can be measured in an absorbency reader at 630 nm (Multiskan Ascent). The color obtained is directly proportional to the total number of cells per well. The cells were briefly incubated with 0.05% CV plus 4% Formalin for 20 minutes and after several washes with Milli-Q water, the cells were left to dry for 1-2 hours and then 0.1 M of HCl was added for its immediate reading. The RLU/s of the luciferases corresponding to each promoter were normalized by the average of the total number of cells per condition. Three independent assays with 3 measurements per assay were carried out for Ac-L-Asp-L-Val-L-Lys-L-Tyr-OH at 0.1 mg/mL and 1 mg/mL. 1 assay with 3 measurements was carried out for the other compounds and concentrations.
(§3) The increase in the activity of the promoters with regard to the levels of expression of the negative control was determined.

[2] = system: human LOXL1 gene promoter; test: Luminescence assay of human LOXL1 gene promoter activation (Renilla luciferase); assay type: cell-based; conditions: 16-24 hours
Method: as §1, §2, §3

Row | Substance | Increase in the activity of the human promoter of the FIBULIN 5 gene with regard to the negative control ([1]; 2 mg/mL) | Increase in the activity of the human promoter of the LOXL1 gene with regard to the negative control ([2]; 2 mg/mL) | further results
1 | Ac-L-Lys-L-Cit-L-Lys(Ac-L-Lys-L-Cit)-4-Abz-NH2 | – | – | Increase in the activity of the human promoter of the FIBULIN 5 gene with regard to the negative control ([1]; 0.5 mg/mL): 21%; Increase in the activity of the human promoter of the LOXL1 gene with regard to the negative control ([2]; 0.5 mg/mL): 22%
2 | Ac-L-Asn-L-Val-L-Dpr-L-Tyr-OH (Ac-NV[Dap]Y-OH; SMILES CC(=O)N[C@@H](CC(N)=O)C(=O)N[C@H](C(=O)N[C@@H](CN)C(=O)N[C@@H](Cc1ccc(O)cc1)C(=O)O)C(C)C) | 35.49% | 3.99% | –
3 | Palm-L-Asp-L-Val-L-Lys-L-Tyr-OH (Palmitoyl-DVKY-OH; SMILES CCCCCCCCCCCCCCCC(=O)N[C@@H](CC(=O)O)C(=O)N[C@H](C(=O)N[C@@H](CCCCN)C(=O)N[C@@H](Cc1ccc(O)cc1)C(=O)O)C(C)C) | 32.47% | 25.17% | –
4 | H-L-Gln-L-Ile-L-Orn-L-Tyr-OH (H-QI[Orn]Y-OH; SMILES CC[C@H](C)[C@H](NC(=O)[C@@H](N)CCC(N)=O)C(=O)N[C@@H](CCCN)C(=O)N[C@@H](Cc1ccc(O)cc1)C(=O)O) | 4.41% | 47.99% | –
5 | Ac-L-Asn-L-Ile-L-Lys-L-Tyr-OH (Ac-NIKY-OH) | 12.25% | 9.83% | –
6 | Ac-L-Gln-L-Val-L-Lys-L-Tyr-OH (Ac-QVKY-OH) | 19.79% | 22.61% | –
7 | Palm-L-Asn-L-Ile-L-Orn-L-Trp-NH(n-hexyl) (Palmitoyl-NI[Orn]W-NHHex; SMILES CCCCCCCCCCCCCCCC(=O)N[C@@H](CC(N)=O)C(=O)N[C@H](C(=O)N[C@@H](CCCN)C(=O)N[C@@H](Cc1c[nH]c2ccccc12)C(=O)NCCCCCC)[C@@H](C)CC) | – | – | Increase in the activity of the human promoter of the FIBULIN 5 gene with regard to the negative control ([1]; 1 mg/mL): 43.65%; Increase in the activity of the human promoter of the LOXL1 gene with regard to the negative control ([2]; 1 mg/mL): 18.48%
8 | Ac-L-Asp-L-Val-L-Lys-L-Tyr-NH(n-hexyl) (Ac-DVKY-NHHex; SMILES CCCCCCNC(=O)[C@H](Cc1ccc(O)cc1)NC(=O)[C@H](CCCCN)NC(=O)[C@@H](NC(=O)[C@H](CC(=O)O)NC(C)=O)C(C)C) | 18.11% | 7.54% | –
9 | H-L-Gln-L-Val-L-Orn-L-Tyr-OH (H-QV[Orn]Y-OH; SMILES CC(C)[C@H](NC(=O)[C@@H](N)CCC(N)=O)C(=O)N[C@@H](CCCN)C(=O)N[C@@H](Cc1ccc(O)cc1)C(=O)O) | 7.04% | 25.84% | –
10 | Ac-L-Asn-L-Thr-L-Lys(Ac-L-Asn-L-Thr)-4-Abz-NH2 | – | – | Increase in the activity of the human promoter of the FIBULIN 5 gene with regard to the negative control ([1]; 0.5 mg/mL): 39%; Increase in the activity of the human promoter of the LOXL1 gene with regard to the negative control ([2]; 0.5 mg/mL): 51%
11 | Ac-Gly-L-Gln-L-Lys(Ac-Gly-L-Gln)-4-Abz-NH2 | – | – | Increase in the activity of the human promoter of the FIBULIN 5 gene with regard to the negative control ([1]; 0.5 mg/mL): 17%; Increase in the activity of the human promoter of the LOXL1 gene with regard to the negative control ([2]; 0.5 mg/mL): 79%
12 | Ac-L-Glu-L-Val-L-Lys-L-Trp-OH (Ac-EVKW-OH) | 10.92% | 22.22% | –
13 | Ac-Asn-L-His-L-Lys(Ac-Asn-L-His)-4-Abz-NH2 | – | – | Increase in the activity of the human promoter of the FIBULIN 5 gene with regard to the negative control ([1]; 0.5 mg/mL): 53%; Increase in the activity of the human promoter of the LOXL1 gene with regard to the negative control ([2]; 0.5 mg/mL): 47%
14 | Ac-L-Gln-L-Val-L-Lys-L-Trp-NH2 (Ac-QVKW-NH2) | 38.10% | 18.08% | –
15 | Ac-L-Asp-L-Val-L-Orn-L-Tyr-OH (Ac-DV[Orn]Y-OH; SMILES CC(=O)N[C@@H](CC(=O)O)C(=O)N[C@H](C(=O)N[C@@H](CCCN)C(=O)N[C@@H](Cc1ccc(O)cc1)C(=O)O)C(C)C) | 44.60% | 28.35% | –
16 | Ac-L-Gln-L-Met-L-Lys-L-Tyr-OH (Ac-QMKY-OH) | 6.05% | 28.48% | –
17 | Ac-L-Asn-L-IIe-L-Dpr-L-Tyr-OH (Ac-NI[Dap]Y-OH; SMILES CC[C@H](C)[C@H](NC(=O)[C@H](CC(N)=O)NC(C)=O)C(=O)N[C@@H](CN)C(=O)N[C@@H](Cc1ccc(O)cc1)C(=O)O) | 41.79% | 8.75% | –

The next lines start with results.

Row | Increase in the activity of the human promoter of the FIBULIN 5 gene with regard to the negative control ([1]; 2 mg/mL) | Increase in the activity of the human promoter of the LOXL1 gene with regard to the negative control ([2]; 2 mg/mL) | Substance | further results
18 | 15.42% | 14.96% | Ac-L-Asp-L-Leu-L-Lys-L-Tyr-OH (Ac-DLKY-OH) | –
19 | 26.39% | 68.94% | Ac-L-Gln-L-Val-L-Dbu-L-Trp-NH2 (Ac-QV[Dbu]W-NH2) | –
20 | 59.33% | 27.08% | Ac-L-Asp-L-Ile-L-Lys-L-Tyr-NH(n-hexadecyl) (Ac-DIKY-{NH(n-hexadecyl)}) | –
21 | 14.36% | 32.85% | Ac-L-Asp-L-Met-L-Lys-L-Tyr-OH (Ac-DMKY-OH) | –
22 | 41.93% | 21.82% | H-L-Asp-L-Val-L-Lys-L-Tyr-OH (H-DVKY-OH) | –
23 | 27.45% | 5.59% | Ac-L-Glu-L-Val-L-Lys-L-Tyr-OH (Ac-EVKY-OH) | –
24 | 9.69% | 16.67% | H-L-Asn-L-Leu-L-Lys-L-Tyr-OH (H-NLKY-OH) | –
25 | 30.26% | 22.87% | Ac-L-Asp-L-Val-L-Lys-L-Tyr-NH2 (Ac-DVKY-NH2) | –
26 | 17.08% | 28.10% | Ac-L-Asp-L-Val-L-Dbu-L-Tyr-OH (Ac-DV[Dbu]Y-OH) | –

From US9458194B2, “Compounds useful in the treatment and/or care of the skin and their cosmetic or pharmaceutical compositions” (Lubrizol Advanced Materials, Inc., priority 2013, dated 2016)
